Measured values taken from the NIST ThermoML archive (doi:10.1016/j.tca.2013.12.016).

Assay: mn = molality of the nth substance listed, in mol/kg
Conditions: 101 kPa, Liquid; for speed of sound: Linear variable-path acoustic interferometer; for mass density: Vibrating tube method

CCOC(C)=O [ethyl acetate] + CO
Conditions | mass density, 298.15 K [kg/m3] | mass density, 303.15 K [kg/m3] | mass density, 308.15 K [kg/m3] | mass density, 313.15 K [kg/m3] | speed of sound, 298.15 K [m/s] | speed of sound, 303.15 K [m/s] | speed of sound, 308.15 K [m/s] | speed of sound, 313.15 K [m/s]
m2 = 0.0111 | 894.5 | 888.9 | 883 | 877.1 | 1110 | 1086 | 1059 | 1038
m2 = 0.0223 | 894.6 | 888.8 | 882.9 | 877 | 1113 | 1089 | 1062 | 1041
m2 = 0.0495 | 894.7 | 888.7 | 882.8 | 876.9 | 1116 | 1092 | 1065 | 1044
m2 = 0.1474 | 894.9 | 888.6 | 882.7 | 876.8 | 1119 | 1095 | 1068 | 1047
m2 = 0.2878 | 894.7 | 888.5 | 882.4 | 876.4 | 1122 | 1098 | 1071 | 1050
m2 = 0.3556 | 894.4 | 888.3 | 882.1 | 876.2 | 1125 | 1101 | 1074 | 1053
m2 = 0.4905 | 893.6 | 887.7 | 881.6 | 875.8 | 1128 | 1104 | 1077 | 1056
m2 = 0.7268 | 892.2 | 886.4 | 880.6 | 874.8 | 1131 | 1107 | 1080 | 1059
m2 = 0.974 | 890.5 | 884.9 | 879.1 | 873.8 | 1134 | 1110 | 1089 | 1062
m2 = 1.409 | 888.2 | 882.6 | 877 | 871.6 | 1137 | 1113 | 1092 | 1065
m2 = 2.445 | 886.1 | 879.8 | 873.8 | 868.4 | 1140 | 1116 | 1095 | 1068
m2 = 3.001 | 886 | 879.1 | 873.1 | 867.9 | 1143 | 1122 | 1098 | 1071

COC(C)=O [methyl ethanoate] + CCO
Conditions | mass density, 298.15 K [kg/m3] | mass density, 303.15 K [kg/m3] | mass density, 308.15 K [kg/m3] | mass density, 313.15 K [kg/m3] | speed of sound, 298.15 K [m/s] | speed of sound, 303.15 K [m/s] | speed of sound, 308.15 K [m/s] | speed of sound, 313.15 K [m/s]
m2 = 0.0152 | 927 | 920.5 | 914.2 | 908 | 1153 | 1134 | 1113 | 1089
m2 = 0.0357 | 926.8 | 920.3 | 914 | 907.8 | 1152 | 1131 | 1110 | 1086
m2 = 0.065 | 926.6 | 920.1 | 913.8 | 907.6 | 1150 | 1130 | 1108 | 1084
m2 = 0.102 | 926.3 | 919.8 | 913.5 | 907.3 | 1149 | 1128 | 1107 | 1083
m2 = 0.2098 | 925.5 | 919 | 912.7 | 906.5 | 1146 | 1125 | 1104 | 1080
m2 = 0.3417 | 924.5 | 918 | 911.7 | 905.5 | 1143 | 1122 | 1101 | 1077
m2 = 0.5068 | 923.1 | 916.7 | 910.4 | 904.1 | 1140 | 1119 | 1098 | 1074
m2 = 0.6769 | 921.8 | 915.4 | 909.1 | 902.8 | 1137 | 1116 | 1095 | 1071
m2 = 0.9775 | 919.5 | 913.1 | 906.9 | 900.6 | 1134 | 1113 | 1092 | 1068
m2 = 1.702 | 914.4 | 908 | 901.9 | 895.5 | 1131 | 1110 | 1089 | 1065
m2 = 2.712 | 907.8 | 901.5 | 895.4 | 889 | 1128 | 1107 | 1086 | 1062
m2 = 3 | 905.8 | 899.7 | 893.5 | 887.1 | 1122 | 1104 | 1080 | 1056

CCOC(C)=O [ethyl acetate] + CCO
Conditions | mass density, 298.15 K [kg/m3] | mass density, 303.15 K [kg/m3] | mass density, 308.15 K [kg/m3] | mass density, 313.15 K [kg/m3] | speed of sound, 298.15 K [m/s] | speed of sound, 303.15 K [m/s] | speed of sound, 308.15 K [m/s] | speed of sound, 313.15 K [m/s]
m2 = 0.0124 | 894.9 | 888.4 | 882.9 | 877.2 | 1152 | 1135 | 1116 | 1093
m2 = 0.0357 | 894.7 | 888.2 | 882.7 | 877 | 1151 | 1134 | 1115 | 1091
m2 = 0.0713 | 894.4 | 887.9 | 882.4 | 876.4 | 1150 | 1133 | 1114 | 1090
m2 = 0.1025 | 894.2 | 887.7 | 882.2 | 876.5 | 1149 | 1130 | 1110 | 1089
m2 = 0.2087 | 893.5 | 887 | 881.5 | 875.8 | 1147 | 1128 | 1098 | 1077
m2 = 0.3504 | 892.6 | 886.1 | 880.6 | 874.9 | 1143 | 1123 | 1092 | 1069
m2 = 0.5065 | 891.7 | 885.3 | 879.8 | 874 | 1140 | 1119 | 1091 | 1067
m2 = 0.6771 | 890.7 | 884.4 | 878.9 | 873.2 | 1139 | 1116 | 1086 | 1062
m2 = 0.9772 | 889.1 | 883 | 877.4 | 871.8 | 1136 | 1113 | 1083 | 1059
m2 = 1.701 | 885.5 | 879.4 | 874 | 868.3 | 1131 | 1110 | 1080 | 1056
m2 = 2.712 | 880.6 | 874.7 | 869.3 | 863.7 | 1128 | 1107 | 1074 | 1053
m2 = 3.001 | 879.4 | 873.5 | 868.1 | 862.5 | 1122 | 1101 | 1068 | 1044
